Columns and labels:
Format in all cases: in vivo
[1] = system: barnyardgrass (Echinochloa crus-galli); assay: Test B pre-/postemergence plant response
Summary of the method: (§1)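 Ratings reflect visual injury versus untreated controls, from 0 for no effect to 100 for complete control, assessed roughly 10 days after treatment. Formulation: non-phytotoxic solvent mix with surfactant; pre- and postemergence sprays on plants grown in loam soil and sand.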

corn (Zea mays) = assay: Test B pre-/postemergence plant response
Summary of the method: as §1

[2] = system: giant foxtail (Setaria faberii); assay: Test B pre-/postemergence plant response
Summary of the method: as §1

[3] = system: pigweed (Amaranthus retroflexus); assay: Test B pre-/postemergence plant response
Summary of the method: as §1

[4] = system: wheat (Triticum aestivum); assay: Test B pre-/postemergence plant response
Summary of the method: as §1

[5] = system: barnyardgrass (Echinochloa crus-galli); assay: Test C flooded paddy test plant response; details: Flood, 250 g ai/ha; scale of 0 to 100 where 0 is no effect and 100 is complete control; 13 to 15 days
Summary of the method: (§2)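 Flooded-pot format, 3 cm water over soil maintained for the test duration; test compounds dispensed into the water at the 2-leaf stage. Greenhouse holding 13 to 15 days. Plants evaluated visually relative to untreated controls, 0 meaning no effect and 100 complete control.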

[6] = system: ducksalad (Heteranthera limosa); assay: Test C flooded paddy test plant response; details: Flood, 250 g ai/ha; scale of 0 to 100 where 0 is no effect and 100 is complete control; 13 to 15 days
Summary of the method: as §2

rice (Oryza sativa) = assay: Test C flooded paddy test plant response; details: Flood, 250 g ai/ha; scale of 0 to 100 where 0 is no effect and 100 is complete control; 13 to 15 days
Summary of the method: as §2

[7] = system: small-flower umbrella sedge (Cyperus difformis); assay: Test C flooded paddy test plant response; details: Flood, 250 g ai/ha; scale of 0 to 100 where 0 is no effect and 100 is complete control; 13 to 15 days
Summary of the method: as §2

[8] = system: johnsongrass (Sorghum halepense); assay: Test D pre-/postemergence plant response
Excerpt: (§3) Seeds of plant species selected from blackgrass (Alopecurus myosuroides), Italian ryegrass (Lolium multiflorum), winter wheat (Triticum aestivum), galium (catchweed bedstraw, Galium aparine), corn (Zea mays), large (Lg) crabgrass (Digitaria sanguinalis), giant foxtail (Setaria faberii), johnsongrass (Sorghum halepense), lambsquarters (Chenopodium album), morningglory (Ipomoea coccinea), yellow nutsedge (Cyperus esculentus), pigweed (Amaranthus retroflexus), ragweed (common ragweed, Ambrosia elatior), soybean (Glycine max), bamyardgrass (Echinochloa crus-galli), oilseed rape (Brassica napus), waterhemp (common waterhemp, Amaranthus rudis), and velvetleaf (Abutilon theophrasti) were planted into a blend of loam soil and sand and treated preemergence with test chemicals formulated in a non-phytotoxic solvent mixture which included a surfactant. At the same time, plants selected from these crop and weed species and also kochia (Kochia scoparia), wild oat (Avena fatua), and chickweed (common chickweed, Stellaria media) were planted in pots containing Redi-Earth® planting medium (Scotts Company, 14111 Scottslawn Road, Marysville, Ohio 43041) comprising spaghnum peat moss, vermiculite, wetting agent and starter nutrients and treated with postemergence applications of test chemicals formulated in the same manner. Plants ranged in height from 2 to 18 cm (1- to 4-leaf stage) for postemergence treatments. Treated plants and controls were maintained in a greenhouse for 13 to 15 days, after which time all species were compared to controls and visually evaluated. Plant response ratings, summarized in Table D, are based on a scale of 0 to 100 where 0 is no effect and 100 is complete control. A dash (-) response means no test result.

[9] = system: lambsquarters (Chenopodium album); assay: Test D pre-/postemergence plant response
Excerpt: as §3

[10] = system: morningglory (Ipomoea coccinea); assay: Test D pre-/postemergence plant response
Excerpt: as §3

soybean (Glycine max) = assay: Test D pre-/postemergence plant response
Excerpt: as §3

[11] = system: velvetleaf (Abutilon theophrasti); assay: Test D pre-/postemergence plant response
Excerpt: as §3

[12] = system: waterhemp (common waterhemp, Amaranthus rudis); assay: Test D pre-/postemergence plant response
Excerpt: as §3

[13] = system: winter wheat (Triticum aestivum); assay: Test D pre-/postemergence plant response
Excerpt: as §3

[14] = 125 g ai/ha, postemergence, 0 to 100 scale, 0 no effect, 100 complete control
[15] = Postemergence, 500 g ai/ha, 0 to 100 scale (0 no effect, 100 complete control)
[16] = Preemergence, 125 g ai/ha, 0 to 100 scale where 0 is no effect and 100 is complete control
[17] = Preemergence, 500 g ai/ha, 0 to 100 scale where 0 is no effect and 100 is complete control
[18] = Postemergence, 16 g ai/ha, scale 0 to 100 (0 no effect, 100 complete control)
[19] = Postemergence, 31 g ai/ha, scale 0 to 100 (0 no effect, 100 complete control)
[20] = Postemergence, 62 g ai/ha, scale 0 to 100, 0 no effect, 100 complete control
[21] = Postemergence, 125 g ai/ha, scale 0 to 100, 0 no effect, 100 complete control
[22] = Preemergence, 16 g ai/ha, scale 0 to 100 (0 no effect, 100 complete control)
[23] = Preemergence, 31 g ai/ha, scale 0 to 100 (0 no effect, 100 complete control)
[24] = Preemergence, 62 g ai/ha, scale 0 to 100 (0 no effect, 100 complete control)

## Cc1cc(-c2ccccc2Oc2ncc(Cl)cn2)on1 [Compound 58]
[1]; [14]
  Plant response rating, Barnyardgrass: 70
[1]; [15]
  Plant response rating, Barnyardgrass: 90
[1]; [16]
  Plant response rating, Barnyardgrass: 60
[1]; [17]
  Plant response rating, Barnyardgrass: 100
Corn (Zea mays); [14]
  Plant response rating, Corn: 0
Corn (Zea mays); [15]
  Plant response rating, Corn: 50
[2]; [14]
  Plant response rating, Foxtail, Giant: 70
[2]; [15]
  Plant response rating, Foxtail, Giant: 90
[2]; [16]
  Plant response rating, Foxtail, Giant: 90
[2]; [17]
  Plant response rating, Foxtail, Giant: 100
[3]; [14]
  Plant response rating, Pigweed: 100
[3]; [15]
  Plant response rating, Pigweed: 100
[3]; [16]
  Plant response rating, Pigweed: 100
[3]; [17]
  Plant response rating, Pigweed: 100
[4]; [14]
  Plant response rating, Wheat: 0
[4]; [15]
  Plant response rating, Wheat: 50
[5]
  Barnyardgrass plant response rating: 0
[6]
  Ducksalad plant response rating: 80
Rice (Oryza sativa)
  Rice plant response rating: 0
[7]
  Sedge, Umbrella plant response rating: 40
[8]; [18]
  Johnsongrass plant response rating: 0
[8]; [19]
  Johnsongrass plant response rating: 0
[8]; [20]
  Plant response rating, Johnsongrass: 0
[8]; [21]
  Plant response rating, Johnsongrass: 5
[8]; Preemergence, 125 g ai/ha
  Plant response rating (scale 0 to 100), Johnsongrass: 50
[8]; [22]
  Plant response rating, Johnsongrass: 10
[8]; [23]
  Plant response rating, Johnsongrass: 10
[8]; [24]
  Plant response rating, Johnsongrass: 20
[9]; [18]
  Lambsquarters plant response rating: 10
[9]; [19]
  Lambsquarters plant response rating: 75
[9]; [20]
  Plant response rating, Lambsquarters: 60
[9]; [21]
  Plant response rating, Lambsquarters: 90
[9]; Preemergence, 125 g ai/ha
  Plant response rating (scale 0 to 100), Lambsquarters: 100
[9]; [22]
  Plant response rating, Lambsquarters: 25
[9]; [23]
  Plant response rating, Lambsquarters: 100
[9]; [24]
  Plant response rating, Lambsquarters: 100
[10]; [18]
  Morningglory plant response rating: 20
[10]; [19]
  Morningglory plant response rating: 45
[10]; [20]
  Plant response rating, Morningglory: 45
[10]; [21]
  Plant response rating, Morningglory: 65
[10]; Preemergence, 125 g ai/ha
  Plant response rating (scale 0 to 100), Morningglory: 45
[10]; [22]
  Plant response rating, Morningglory: 10
[10]; [23]
  Plant response rating, Morningglory: 25
[10]; [24]
  Plant response rating, Morningglory: 0
Soybean (Glycine max); [18]
  Soybean plant response rating: 55
Soybean (Glycine max); [19]
  Soybean plant response rating: 40
Soybean (Glycine max); [20]
  Plant response rating, Soybean: 60
Soybean (Glycine max); [21]
  Plant response rating, Soybean: 75
Soybean (Glycine max); Preemergence, 125 g ai/ha
  Plant response rating (scale 0 to 100), Soybean: 85
Soybean (Glycine max); [22]
  Plant response rating, Soybean: 30
Soybean (Glycine max); [23]
  Plant response rating, Soybean: 35
Soybean (Glycine max); [24]
  Plant response rating, Soybean: 80
[11]; [18]
  Velvetleaf plant response rating: 60
[11]; [19]
  Velvetleaf plant response rating: 35
[11]; [20]
  Plant response rating, Velvetleaf: 60
[11]; [21]
  Plant response rating, Velvetleaf: 85
[11]; Preemergence, 125 g ai/ha
  Plant response rating (scale 0 to 100), Velvetleaf: 100
[11]; [22]
  Plant response rating, Velvetleaf: 85
[11]; [23]
  Plant response rating, Velvetleaf: 100
[11]; [24]
  Plant response rating, Velvetleaf: 100
[12]; [18]
  Waterhemp plant response rating: 35
[12]; [19]
  Waterhemp plant response rating: 40
[12]; [20]
  Plant response rating, Waterhemp: 55
[12]; [21]
  Plant response rating, Waterhemp: 75
[12]; Preemergence, 125 g ai/ha
  Plant response rating (scale 0 to 100), Waterhemp: 100
[12]; [22]
  Plant response rating, Waterhemp: 100
[12]; [23]
  Plant response rating, Waterhemp: 100
[12]; [24]
  Plant response rating, Waterhemp: 100
[13]; [18]
  Wheat plant response rating: 0
[13]; [19]
  Wheat plant response rating: 5
[13]; [20]
  Plant response rating, Wheat: 10
[13]; [21]
  Plant response rating, Wheat: 10
[13]; Preemergence, 125 g ai/ha
  Plant response rating (scale 0 to 100), Wheat: 0
[13]; [22]
  Plant response rating, Wheat: 0
[13]; [23]
  Plant response rating, Wheat: 0
[13]; [24]
  Plant response rating, Wheat: 0

Source: patent US10131652B2, “Pyrimidinyloxy benzene derivatives as herbicides” (E. I. DU PONT DE NEMOURS AND COMPANY, priority 2014, dated 2018)
